The values that follow come from patent publication US20230339977A1, “SUBSTITUTED HETEROARYL COMPOUND, AND COMPOSITION AND APPLICATION THEREOF” (SUNSHINE LAKE PHARMA CO., LTD., priority 2020, published 2023).

The term IC50 denotes the midpoint of a concentration-inhibition curve.

This assay has as its system JAK2/TYK2. Put plainly: Cell level activity test of JAK2/TYK2 (IL-12 mediated IFNγ expression in NK92 cells). It counts as cell-based. As to conditions: IFNγ in supernatant by ELISA, NK92 cells with IL-12, 24 h. From the text: TYK2 belongs to the JAK family, and can accept the ligand acting on the coupled receptor signal to regulate downstream signal activator of transcription (STAT) phosphorylation. Phosphorylation of STAT can regulate the expression of downstream related genes, leading to changes in physiological functions such as cell proliferation and differentiation. IL-12 mediates IFNγ expression in NK92 cells through JAK2/TYK2.
Therefore, by inhibiting TYK2 activity, inhibition of this cascade pathway leads to a decrease in IFNγ expression. However, IL-2 can induce NK92 proliferation and produce IFNγ through receptor-coupled […], so the influence of IL-2 needs to be ruled out. In this experiment, the activity of compounds on JAK2/TYK2 was evaluated by detecting the expression of IFNγ at various compound concentrations.
The test compound was dissolved in DMSO, prepared into a 20 mM stock solution, and stored at -20° C. for future use. The mother solution was diluted 10 times with DMSO to make a 2 mM solution, then diluted with medium to an initial concentration of […], and then diluted 3-fold with medium containing 5% DMSO to obtain a prepared concentration gradient of […], 33333.3 nM, 11111.1 nM, 3703.70 nM, 1234.57 nM, 411.523 nM, 137.174 nM, 45.7247 nM, 15.2416 nM; 10 ul of the above-mentioned concentration of drugs were added into a 96-well plate to obtain the final concentrations of […], 3333.3 nM, 1111.1 nM, 370.4 nM, 123.5 nM, 41.1 nM, 13.7 nM, 4.6 nM, 1.52 nM;
NK92 cells were resuscitated and cultured, 16 h before the experiment, the medium was replaced with interleukin-free medium. The mixture was centrifuged and IL-12 medium was added to resuspend the cells, seeded 95 ul in a 96-well plate at a density of 20,000 cells/well, 10 ul of the above gradual dilution was added and incubated for 24 h, centrifuged to take the supernatant, diluted 3-fold with pure water, and the IFNγ concentration of the supernatant was detected by ELISA, the IC50 value was calculated.

Take `COCC(C)(C)COc1cc(-c2cn(C)c3cnc(NC(C)=O)cc23)nc2c1CCOC21CCOC1` (stereo not drawn) [Example 30, N-(3-(4′-(3-Methoxy-2,2-Dimethylpropoxy)-4,5,5′,6′-Tetrahydro-2H-Spiro[Furan-3,8′-Pyrano[3,4-b]Pyridin]-2′-yl)-1-Methyl-1H-Pyrrolo[2,3-c]Pyridin-5-yl)Acetamide]: the IC50 (NK92, 24 h) is 102 nM.
Still for that read-out and setting: as for `CC(=O)Nc1cc2c(-c3cc(OCC(C)(C)CO)c4c(n3)C3(CCOC3)OCC4)cn(C)c2cn1` (stereo not drawn) [Example 35, N-(3-(4′-(3-Hydroxy-2,2-Dimethylpropoxy)-4,5,5′,6′-Tetrahydro-2H-Spiro[Furan-3,8′-Pyrano[3,4-b]Pyridin]-2′-yl)-1-Methyl-1H-Pyrrolo[2,3-c]Pyridin-5-yl)Acetamide], the figure is 20.4 nM; as for `CC(=O)Nc1cc2c(-c3cc(OCC[C@H](C)O)c4c(n3)C3(CCOC3)OCC4)cn(C)c2cn1` (stereo partly drawn) [Example 39, N-(3-(4′-((S)-3-Hydroxybutoxy)-4,5,5′,6′-Tetrahydro-2H-Spiro[Furan-3,8′-Pyrano[3,4-b]Pyridin]-2′-yl)-1-Methyl-1H-Pyrrolo[2,3-c]Pyridin-5-yl)Acetamide], 11 nM.
Still for that read-out and setting: the same measure for `COCCOCCCOc1cc(-c2cn(C)c3cnc(NC(C)=O)cc23)nc2c1CCOC21CCOC1` (stereo not drawn) [Example 32, N-(3-(4′-(3-(2-Methoxyethoxy)Propoxy)-4,5,5′,6′-Tetrahydro-2H-Spiro[Furan-3,8′-Pyrano[3,4-b]Pyridin]-2′-yl)-1-Methyl-1H-Pyrrolo[2,3-c]Pyridin-5-yl)Acetamide]: 30.6 nM; for `CC(=O)Nc1cc2c(-c3cc(OCCC(C)(C)O)c4c(n3)C3(CCOC3)OCC4)cn(C3COC3)c2cn1` (stereo not drawn) [Example 49, N-(3-(4′-(3-Hydroxy-3-Methylbutoxy)-4,5,5′,6′-Tetrahydro-2H-Spiro[Furan-3, 8′-Pyrano[3,4-b]Pyridin]-2′-yl)-1-(Oxetan-3-yl)-1H-Pyrrolo[2,3-c]Pyridin-5-yl)Acetamide]: 68.1 nM.
As to `CC(=O)Nc1cc2c(-c3cc(COCC(C)(C)O)c4c(n3)C3(CCOC3)OCC4)cn(C)c2cn1` (stereo not drawn) [Example 45, N-(3-(4′-((2-Hydroxy-2-Methylpropoxy)Methyl)-4,5,5′,6′-Tetrahydro-2H-Spiro[Furan-3,8′-Pyrano[3,4-b]Pyridin]-2′-yl)-1-Methyl-1H-Pyrrolo[2,3-c]Pyridin-5-yl)Acetamide], half-maximal inhibition (NK92, 24 h) (IC50) required 111 nM.
For `CC(=O)Nc1cc2c(-c3cc(OCC[C@@H](C)O)c4c(n3)C3(CCOC3)OCC4)cn(C)c2cn1` (stereo partly drawn) [Example 37, N-(3-(4′-((R)-3-Hydroxybutoxy)-4,5,5′,6′-Tetrahydro-2H-Spiro[Furan-3,8′-Pyrano[3,4-b]Pyridin]-2′-yl)-1-Methyl-1H-Pyrrolo[2,3-c]Pyridin-5-yl)Acetamide], half-maximal inhibition (NK92, 24 h) (IC50) required 20 nM.
For `COC(C)CCOc1cc(-c2cn(C)c3cnc(NC(C)=O)cc23)nc2c1CCOC21CCOC1` (stereo in doubt) [Example 43, N-(3-(4′-((R)-3-Methoxybutoxy)-4,5,5′,6′-Tetrahydro-2H-Spiro[Furan-3,8′-Pyrano[3,4-b]Pyridin]-2′-yl)-1-Methyl-1H-Pyrrolo[2,3-c]Pyridin-5-yl)Acetamide], half-maximal inhibition (NK92, 24 h) (IC50) was put at 26.4 nM.
In the case of `CC(=O)Nc1cc2c(-c3cc(OCCCO)c4c(n3)C3(CCOC3)OCC4)cn(C)c2cn1` (stereo not drawn) [Example 34, N-(3-(4′-(3-Hydroxypropoxy)-4,5,5′,6′-Tetrahydro-2H-Spiro[Furan-3,8′-Pyrano[3,4-b]Pyridin]-2′-yl)-1-Methyl-1H-Pyrrolo[2,3-c]Pyridin-5-yl)Acetamide], the IC50 (NK92, 24 h) worked out at 34.3 nM.
Still for that read-out and setting: as for `CC(=O)Nc1cc2c(-c3cc(SCCC(C)(C)O)c4c(n3)C3(CCOC3)OCC4)cn(C)c2cn1` (stereo not drawn) [Example 44, N-(3-(4′-((3-Hydroxy-3-Methylbutyl)Thio)-4,5,5′,6′-Tetrahydro-2H-Spiro[Furan-3,8′-Pyrano[3,4-b]Pyridin]-2′-yl)-1-Methyl-1H-Pyrrolo[2,3-c]Pyridin-5-yl)Acetamide], the figure is 40.2 nM.
Molecule `CC(=O)Nc1cc2c(-c3cc(OCCCOC(F)F)c4c(n3)C3(CCOC3)OCC4)cn(C)c2cn1` (stereo not drawn) [Example 33, N-(3-(4′-(3-(Difluoromethoxy)Propoxy)-4,5,5′,6′-Tetrahydro-2H-Spiro[Furan-3,8′-Pyrano[3,4-b]Pyridin]-2′-yl)-1-Methyl-1H-Pyrrolo[2,3-c]Pyridin-5-yl)Acetamide] yielded an IC50 (NK92, 24 h) of 38.6 nM.
As to `CO[C@@H](C)CCOc1cc(-c2cn(C)c3cnc(NC(C)=O)cc23)nc2c1CCOC21CCOC1` (stereo partly drawn) [Example 38, N-(3-(4′-((S)-3-Methoxybutoxy)-4,5,5′,6′-Tetrahydro-2H-Spiro[Furan-3,8′-Pyrano[3,4-b]Pyridin]-2′-yl)-1-Methyl-1H-Pyrrolo[2,3-c]Pyridin-5-yl)Acetamide], the IC50 amounted to 27.7 nM.
